We go through five molecules from patent US20220133846A1, “NOVEL ANTIMICROBIAL COMPOUND AND USES THEREOF” (priority 2019, published 2022).

≈ marks a conversion by molar mass, not a printed value. Where “and” joins values, the source holds several entries; their conditions need not be identical. Identical values can stand only once. Like-named read-outs stand apart in the source and are kept apart here.

Assay [1] relates to broad spectrum of Gram-positive bacteria. The following applies: cited from earlier work.
For assay [2], the system named is Acinetobacter baumannii. As to the kind of experiment: microbe, parasite or virus in culture.
The subject of assay [3] is Acinetobacter septicus. As to the kind of experiment: MIC against clinical isolates (Christiana Hospital). It is filed as cell-based. Conditions: clinical strain CH44, drug resistance N.
The test system of assay [4] is Acinetobacter guillouiae. The description is as above. The following applies: clinical strain CH42, drug resistance N. The class given is cell-based.
In assay [5] the test system is Acinetobacter calcoaceticus. Described as above. It is filed as cell-based. The following applies: clinical strain CH37, drug resistance N.
Assay [6] relates to Acinetobacter ursingii. The description is as above. It is filed as cell-based. Conditions: clinical strain CH41, drug resistance N.
Assay [7] deals with Acinetobacter modestus. The description is as above. The class given is cell-based. The following applies: clinical strain CH43, drug resistance N.
The subject of assay [8] is S. aureus (SA) and MRSA biofilms. It is filed as cell-based.
Assay [9] relates to S. aureus NRS 384 (USA300-0114). As to the kind of experiment: Murine neutropenic thigh infection model. It is filed as in vivo, mice. Conditions: 25 mg/kg, both studies.
For assay [10], the system named is A. baumannii (CH-46). In words: Frequency of resistance (FoR) in vitro. The class given is cell-based.
The subject of assay [11] is Acinetobacter baumannii.
The test system of assay [12] is S. aureus. In words: Prevention of biofilm formation by pre-coating wells. It is filed as cell-based. Conditions: data not shown.

`C=C1NC(=O)CC[C@@H](C(=O)O)NC(=O)[C@H](NC(=O)[C@H](CCCCN)NC(=O)[C@@H](N)Cc2c[nH]c3ccccc23)CSC[C@@H](C(=O)N[C@@H]2C(=O)N3CCC[C@H]3C(=O)NCC(=O)N[C@H](C(=O)N[C@H](C(=O)N[C@@H]3C(=O)NCC(=O)N[C@@H](C)C(=O)N[C@@H](CC(C)C)C(=O)N[C@@H](CCC(N)=O)C(=O)N/C(=C/C)C(=O)N[C@H](C(=O)N[C@@H](Cc4ccccc4)C(=O)N[C@@H](CC(C)C)C(=O)N[C@@H](CCC(N)=O)C(=O)N[C@@H]4C(=O)N[C@@H](CC(C)C)C(=O)N[C@H]5C(=O)N[C@@H](CSC4C)C(=O)NC(=O)[C@H](CC(N)=O)N[C@H](C(=O)N[C@@H](CCCCN)C(=O)N[C@H](C(=O)NC(=C)C(=O)N[C@@H](CCCCN)C(=O)O)[C@@H](C)CC)CSC5C)CSC3C)C(C)C)CSC2C)N[C@@H](CC(C)C)C(=O)NC1=O` (some centres unmarked) [subtilin]: the Antimicrobial activity entry in [1] was “nanomolar range”.
Turning to `C[C@@H](O)[C@H]1C(=O)N2C(C(=O)O)=C(SCCN=CN)C[C@H]12` [Imipenem], the MIC in assay [2] (clinical strain CH36, drug resistance N) came to 250 µg/mL (≈ 835 µM); in assay [2] (clinical strain CH38, drug resistance N), 125 µg/mL (≈ 418 µM); in [2] (clinical strain CH39, drug resistance N), 15.6 µg/mL (≈ 52.2 µM); in assay [2] (clinical strain CH40, drug resistance N), 31.2 µg/mL (≈ 104 µM); in assay [2] (clinical strain CH45, drug resistance Y), 125 µg/mL (≈ 418 µM); in assay [2] (clinical strain CH46, drug resistance Y), 250 µg/mL (≈ 835 µM). In addition, the MIC stood at 3.91 µg/mL (≈ 13.1 µM) in assay [2] (clinical strain CH47, drug resistance Y); 7.81 µg/mL (≈ 26.1 µM) in assay [2] (clinical strain CH48, drug resistance Y); 62.5 µg/mL (≈ 209 µM) in [2] (clinical strain CH49, drug resistance Y); 62.5 µg/mL (≈ 209 µM) in [2] (clinical strain CH50, drug resistance Y); 31.2 µg/mL (≈ 104 µM) in assay [2] (clinical strain CH51, drug resistance Y); 31.2 µg/mL (≈ 104 µM) in assay [2] (clinical strain CH52, drug resistance Y). The MIC in assay [2] (clinical strain CH53, drug resistance Y) was 31.2 µg/mL (≈ 104 µM); in [2] (clinical strain CH54, drug resistance Y), 7.81 µg/mL (≈ 26.1 µM); in assay [2] (clinical strain CH55, drug resistance Y), 46.9 µg/mL (≈ 157 µM); in assay [3] (Acinetobacter septicus, read-out: MIC) it was 1.46 µg/mL (≈ 4.88 µM); in assay [4] (Acinetobacter guillouiae, read-out: MIC), 7.81 µg/mL (≈ 26.1 µM); in assay [5] (Acinetobacter calcoaceticus, read-out: MIC) it was 0.5 µg/mL (≈ 1.67 µM). For the same molecule, the MIC in assay [6] (Acinetobacter ursingii, read-out: MIC) is 1 µg/mL (≈ 3.34 µM); in assay [7] (Acinetobacter modestus, read-out: MIC) it was 0.5 µg/mL (≈ 1.67 µM).
Turning to `CN[C@H](CC(C)C)C(=O)N[C@H]1C(=O)N[C@@H](CC(N)=O)C(=O)N[C@H]2C(=O)N[C@H]3C(=O)N[C@H](C(=O)N[C@H](C(=O)O)c4cc(O)cc(O)c4-c4cc3ccc4O)[C@H](O)c3ccc(c(Cl)c3)Oc3cc2cc(c3O[C@@H]2O[C@H](CO)[C@@H](O)[C@H](O)[C@H]2O[C@H]2C[C@](C)(N)[C@H](O)[C@H](C)O2)Oc2ccc(cc2Cl)[C@H]1O` [vancomycin, reference compound], the “Effect on viability of pre-formed biofilm” value in assay [8] is on record as “not effective”. The “Bacterial load relative to pre-treatment levels” value in assay [9] is “reduced bacterial load to or below pre-treatment levels”.
In the case of Colistin, the “Frequency of resistance (FoR)” value in assay [10] (2X MIC) is given as 2.7 × 10^−7; in assay [10] (3X MIC), 3.7 × 10^−8; in assay [10] (4X MIC), 5.2 × 10^−8; in assay [10] (5X MIC) it was 5.4 × 10^−8; in assay [10] (10X MIC) it was 2.0 × 10^−9. In addition, the MIC was 1.95 µg/mL in assay [3]; 3.91 µg/mL in [4]; 3.91 µg/mL in [5]; 1.95 µg/mL in assay [6]; 7.81 µg/mL in assay [7]; 3.91 µg/mL and 5.86 µg/mL and 7.81 µg/mL in assay [11].

B1: platelet factor 4: a control cationic peptide (protein, UniProt P02776 32-101, looked up)
Platelet factor 4: EAEEDGDLQCLCVKTTSQVRPRHITSLEVIKAGPHCPTAQLIATLKNGRKICLDLQAPLYKKIIKKLLES
Take B1: in assay [12], the “Effect of coating wells on S. aureus attachment” value is on record as “no effect”.
